Common to all, as to assay: Herbicidal Effectiveness Test
Format in all cases: in vivo
Holding throughout (details): tank mix with Roundup PM 11 fl oz/a, Clarity 6 fl oz/a

For one assay, the system named is ZEAMX Corn. The protocol:
(§1) 4 diluted sprayable herbicide tank mixes were prepared using water with an hardness of 1000 ppm, 0.25% v/v of NIS and the adjuvant concentrates of Example 1 and 3-5.
(§2) For comparative purpose, two other diluted herbicide sprayable tank mixes with two different adjuvants, AMS and DPK 50, were prepared.
(§3) The formulations contained, as herbicides, Roundup® PM for an application rate of 11 fl oz/a (803 ml/h) and Clarity® for an application rate of 6 fl oz/a (438 ml/h).
(§4) The formulation were applied on a multispecies system.
(§5) The herbicidal performances were evaluated by awarding scores to the treated plants in comparison to untreated control plants. The evaluation scale ranges from 0% to 100% herbicidal activity. 100% activity means the complete death at least of those parts of the plant that are above ground.
(§6) The results 14 and 28 days after the treatment are reported in the following Table 3 and Table 4 respectively.

The test system of another assay is AMASS Amaranth. The protocol:
as §1, §2, §3, §4, §5, §6

In a further assay the test system is LIUSS Flax. The protocol:
as §1, §2, §3, §4, §5, §6

The next assay has as its system HELSS Sunflower. Here is the method:
as §1, §2, §3, §4, §5, §6

The mark [1] stands for this setting: 14 days after treatment, adjuvant 8.5 lb/100 gal, 0.25% v/v NIS, water hardness 1000 ppm.
Where [2] appears, read: 14 days after treatment, adjuvant 17 lb/100 gal, 0.25% v/v NIS, water hardness 1000 ppm.
Where [3] appears, read: 28 days after treatment, adjuvant 8.5 lb/100 gal.
Setting [4] is: 28 days after treatment, adjuvant 17 lb/100 gal.

As for `N.N.O=S(=O)(O)O` [AMS, ammonium sulfate], the “herbicidal activity, Corn” value stood at 95% in the assay on ZEAMX Corn (setting [1]), 96.3% with ZEAMX Corn (setting [2]), 95% in the assay on ZEAMX Corn (setting [3]) and 97% in the assay on ZEAMX Corn (setting [4]). Also, the “herbicidal activity, Amaranth” value is on record as 75.3% with AMASS Amaranth (setting [1]), 91% in the assay with AMASS Amaranth (setting [2]), 79.3% with AMASS Amaranth (setting [3]) and 96% with AMASS Amaranth (setting [4]). Also, the “herbicidal activity, Flax” value in the assay with LIUSS Flax (setting [1]) was 74.3%; with LIUSS Flax (setting [2]) it was 88.3%; with LIUSS Flax (setting [3]), 76%; in the assay with LIUSS Flax (setting [4]), 90%. Besides, the “herbicidal activity, Sunflower” value with HELSS Sunflower (setting [1]) was found to be 81%; with HELSS Sunflower (setting [2]) it was 94.3%; in the assay on HELSS Sunflower (setting [3]), 91.7%; with HELSS Sunflower (setting [4]) it was 95%.

For the origin of these results see US9420781B1, “Agrochemical adjuvant concentrate for herbicides” (LAMBERTI SpA, priority 2015, dated 2016).
